From PubChem BioAssay AID246 (DTP/NCI, 2004) come the findings set out here.

This experiment deals with BDF1 mice, P1081 chloroleukemia ip, survival T/C. The experiment is described as follows: NCI In Vivo Anticancer Drug Screen. Data for tumor model P1081 Chloroleukemia (intraperitoneal) in B6D2F1 (BDF1) mice. The note with it: endpoint: mean survival time, higher = longer survival. The procedure: The antitumor activity of compounds was measured in mice bearing transplantable tumors. Survival or tumor size were measured and the results are expressed as the measurement made in the treated group (T) divided by the measurement made in the vehicle treated control group (C). The tumor model used in this assay is P1081 Chloroleukemia (intraperitoneal) in B6D2F1 (BDF1) mice

The mark [1] stands for this setting: dose: 62.5 mg/kg/injection, schedule: Q01DX010 (ip), vehicle: saline.
The mark [2] stands for this setting: dose: 62.5 mg/kg/injection, schedule: Q01DX Z (ip), vehicle: carboxymethylcellulose (CMC).
Where [3] appears, read: dose: 125.0 mg/kg/injection, schedule: Q01DX010 (ip), vehicle: saline.
The mark [4] stands for this setting: dose: 25.0 mg/kg/injection, schedule: Q01DX Z (ip), vehicle: water.
The mark [5] stands for this setting: dose: 125.0 mg/kg/injection, schedule: Q01DX Z (ip), vehicle: carboxymethylcellulose (CMC).
The mark [6] stands for this setting: dose: 250.0 mg/kg/injection, schedule: Q01DX Z (ip), vehicle: carboxymethylcellulose (CMC).
The mark [7] stands for this setting: dose: 5.0 mg/kg/injection, schedule: Q01DX010 (ip), vehicle: saline.
[8] abbreviates: dose: 6.25 mg/kg/injection, schedule: Q01DX Z (ip), vehicle: carboxymethylcellulose (CMC).
[9] abbreviates: dose: 10.0 mg/kg/injection, schedule: Q01DX010 (ip), vehicle: saline.
[10] abbreviates: dose: 20.0 mg/kg/injection, schedule: Q01DX010 (ip), vehicle: saline.
The mark [11] stands for this setting: dose: 40.0 mg/kg/injection, schedule: Q01DX010 (ip), vehicle: saline.
The mark [12] stands for this setting: dose: 12.5 mg/kg/injection, schedule: Q01DX Z (ip), vehicle: carboxymethylcellulose (CMC).

The structures appear in SMILES notation. “And” between values parts separate entries of the source, which are not always exact repeats. Equal values may be shown once. Inconclusive results and toxic doses are left out.

`CCCCNc1ncnc2c1cnn2C`: the T/C runs as follows: (dose: 16.0 mg/kg/injection, schedule: Q01DX Z (ip), vehicle: carboxymethylcellulose (CMC)) 101 % of control; (dose: 31.0 mg/kg/injection, schedule: Q01DX Z (ip), vehicle: carboxymethylcellulose (CMC)) 117 % of control; (dose: 31.25 mg/kg/injection, schedule: Q01DX010 (ip), vehicle: saline) 95 % of control and 100 % of control; under setting [1], 95 % of control and 100 % of control; under setting [2], 113 % of control; under setting [3], 90 % of control and 105 % of control.
Turning to `CN(C)c1ccc(/C=C\c2ccnc3ccccc23)cc1`, the T/C (dose: 0.4 mg/kg/injection, schedule: Q01DX Z (ip), vehicle: water) is 87 % of control; the T/C (dose: 0.8 mg/kg/injection, schedule: Q01DX Z (ip), vehicle: water) was 99 % of control; the T/C (dose: 1.6 mg/kg/injection, schedule: Q01DX Z (ip), vehicle: water) was 108 % of control and 122 % of control; the T/C (dose: 3.1 mg/kg/injection, schedule: Q01DX Z (ip), vehicle: water) is 99 % of control and 105 % of control; the T/C (dose: 6.25 mg/kg/injection, schedule: Q01DX Z (ip), vehicle: water) is 90 % of control and 94 % of control; the T/C (dose: 6.3 mg/kg/injection, schedule: Q01DX Z (ip), vehicle: water) was 118 % of control and 120 % of control. The T/C (dose: 12.5 mg/kg/injection, schedule: Q01DX Z (ip), vehicle: water) is 112 % of control and 94 % of control and 105 % of control; the T/C under setting [4] was 118 % of control and 88 % of control and 90 % of control.
With `Nc1c(I)cc(I)cc1C(=O)O`, the T/C reads like this: (dose: 25.0 mg/kg/injection, schedule: Q01DX010 (ip), vehicle: saline) 100 % of control; (dose: 50.0 mg/kg/injection, schedule: Q01DX010 (ip), vehicle: saline) 110 % of control and 88 % of control; (dose: 100.0 mg/kg/injection, schedule: Q01DX010 (ip), vehicle: saline) 100 % of control and 105 % of control; (dose: 200.0 mg/kg/injection, schedule: Q01DX010 (ip), vehicle: saline) 111 % of control and 105 % of control.
Take `O=CCC(O)C(O)C(O)CO` (stereo not given): the T/C is 95 % of control (dose: 31.25 mg/kg/injection, schedule: Q01DX Z (ip), vehicle: carboxymethylcellulose (CMC)); 88 % of control under setting [2]; 88 % of control under setting [5]; 97 % of control under setting [6].
As for `CN(Cc1cnc2nc(N)nc(N)c2n1)c1ccc(C(=O)N[C@@H](CCC(=O)O)C(=O)O)cc1`, the T/C by setting is: (dose: 0.03 mg/kg/injection, schedule: Q01DX Z (ip), vehicle: other) 160 % of control; (dose: 0.06 mg/kg/injection, schedule: Q01DX Z (ip), vehicle: other) 115 % of control; (dose: 0.07 mg/kg/injection, schedule: Q01DX Z (ip), vehicle: other) 113 % of control; (dose: 0.15 mg/kg/injection, schedule: Q01DX Z (ip), vehicle: other) 117 % of control and 122 % of control; (dose: 0.19 mg/kg/injection, schedule: Q01DX010 (ip), vehicle: other) 110 % of control and 120 % of control and 121 % of control; (dose: 0.24 mg/kg/injection, schedule: Q01DX Z (ip), vehicle: other) 189 % of control. For the same compound, the T/C runs as follows: (dose: 0.31 mg/kg/injection, schedule: Q01DX Z (ip), vehicle: other) 111 % of control and 117 % of control; (dose: 0.38 mg/kg/injection, schedule: Q01DX010 (ip), vehicle: other) 123 % of control; (dose: 0.47 mg/kg/injection, schedule: Q01DX Z (ip), vehicle: other) 226 % of control; (dose: 0.62 mg/kg/injection, schedule: Q01DX Z (ip), vehicle: other) 110 % of control and 113 % of control; (dose: 0.75 mg/kg/injection, schedule: Q01DX010 (ip), vehicle: other) 150 % of control and 160 % of control and 170 % of control; (dose: 0.94 mg/kg/injection, schedule: Q01DX Z (ip), vehicle: other) 92 % of control. Moreover, the T/C (dose: 1.5 mg/kg/injection, schedule: Q01DX010 (ip), vehicle: other) was 187 % of control and 207 % of control and 210 % of control; the T/C (dose: 1.88 mg/kg/injection, schedule: Q01DX Z (ip), vehicle: other) is 98 % of control; the T/C (dose: 3.0 mg/kg/injection, schedule: Q01DX010 (ip), vehicle: other) is 106 % of control and 108 % of control and 105 % of control.
Regarding `S=P(N1CCOCC1)(N1CC1)N1CC1`, the T/C reads like this: (dose: 2.5 mg/kg/injection, schedule: Q01DX010 (ip), vehicle: saline) 116 % of control and 100 % of control; under setting [7], 105 % of control and 100 % of control; under setting [8], 93 % of control; under setting [9], 110 % of control and 122 % of control; under setting [10], 105 % of control.
With `C[C@@H]1C[C@@H]([C@H](O)CC2CC(=O)NC(=O)C2)C(=O)[C@@H](C)C1`, the T/C is, setting by setting: (dose: 0.39 mg/kg/injection, schedule: Q01DX Z (ip), vehicle: water) 89 % of control; (dose: 3.12 mg/kg/injection, schedule: Q01DX Z (ip), vehicle: water) 102 % of control; under setting [7], 86 % of control and 100 % of control; under setting [9], 110 % of control and 100 % of control; under setting [10], 115 % of control and 100 % of control; under setting [4], 93 % of control. Also, the T/C under setting [11] was 90 % of control.
Regarding `O=c1[nH]c(=O)n(C2CC(O)C(CO)O2)cc1F` (stereo not given), the T/C reads like this: under setting [7], 110 % of control; under setting [8], 124 % of control; under setting [9], 120 % of control and 104 % of control; under setting [12], 122 % of control; under setting [10], 110 % of control; under setting [11], 155 % of control and 250 % of control. The T/C (dose: 50.0 mg/kg/injection, schedule: Q01DX Z (ip), vehicle: carboxymethylcellulose (CMC)) was 172 % of control.
For the compound `COc1cc2c(c(OC)c1OC)-c1ccc(N)c(=O)cc1[C@@H](NC(C)=O)CC2`, the T/C reads like this: (dose: 0.5 mg/kg/injection, schedule: Q01DX010 (ip), vehicle: saline) 177 % of control; (dose: 1.0 mg/kg/injection, schedule: Q01DX010 (ip), vehicle: saline) 188 % of control and 250 % of control; (dose: 2.0 mg/kg/injection, schedule: Q01DX010 (ip), vehicle: saline) 100 % of control.
Turning to `O=c1[nH]c(=O)n(C2CC(O)C(CO)O2)cc1I` (stereo not given), the T/C by setting is: under setting [2], 103 % of control; under setting [5], 108 % of control; under setting [6], 118 % of control and 92 % of control; (dose: 500.0 mg/kg/injection, schedule: Q01DX Z (ip), vehicle: carboxymethylcellulose (CMC)) 114 % of control.
`CCCSc1ncnc2nc[nH]c12`: the T/C under setting [8] was 111 % of control; the T/C under setting [12] is 122 % of control; the T/C (dose: 31.3 mg/kg/injection, schedule: Q01DX010 (ip), vehicle: saline) is 105 % of control and 100 % of control; the T/C under setting [1] is 105 % of control and 111 % of control; the T/C under setting [3] is 105 % of control and 111 % of control; the T/C (dose: 250.0 mg/kg/injection, schedule: Q01DX010 (ip), vehicle: saline) is 122 % of control and 100 % of control.
Regarding `CC(=O)O[C@]1(C(C)=O)CC[C@H]2[C@@H]3C[C@H](C)C4=CC(=O)C=C[C@]4(C)[C@@]3(F)[C@@H](O)C[C@@]21C`, the T/C by setting is: (dose: 2.5 mg/kg/injection, schedule: Q01DX Z (sc), vehicle: steriod suspending solution) 100 % of control; (dose: 5.0 mg/kg/injection, schedule: Q01DX Z (sc), vehicle: steriod suspending solution) 108 % of control; (dose: 10.0 mg/kg/injection, schedule: Q01DX Z (sc), vehicle: steriod suspending solution) 107 % of control; (dose: 12.5 mg/kg/injection, schedule: Q01DX010 (sc), vehicle: steriod suspending solution) 105 % of control and 100 % of control; (dose: 20.0 mg/kg/injection, schedule: Q01DX Z (sc), vehicle: steriod suspending solution) 108 % of control; (dose: 25.0 mg/kg/injection, schedule: Q01DX010 (sc), vehicle: steriod suspending solution) 100 % of control. Moreover, the T/C (dose: 40.0 mg/kg/injection, schedule: Q01DX Z (sc), vehicle: steriod suspending solution) was 116 % of control; the T/C (dose: 50.0 mg/kg/injection, schedule: Q01DX010 (sc), vehicle: steriod suspending solution) was 90 % of control and 95 % of control; the T/C (dose: 100.0 mg/kg/injection, schedule: Q01DX010 (sc), vehicle: steriod suspending solution) is 90 % of control and 100 % of control; the T/C (dose: 160.0 mg/kg/injection, schedule: Q01DX Z (sc), vehicle: steriod suspending solution) is 105 % of control; the T/C (dose: 320.0 mg/kg/injection, schedule: Q01DX Z (sc), vehicle: steriod suspending solution) was 93 % of control.
